From ChEMBL document CHEMBL5058564, “EUbOPEN Chemogenomics Library 2 (Incucyte)” (2022)

Key:
Assay type in all cases: toxicity, cell-based
HEK-293T = assay: Incucyte cell viability with HEK293T; settings: human, 10 µM, compound concentration 10 uM
Fibroblast = assay: Incucyte cell viability with human fibroblast; settings: 10 µM, compound concentration 10 uM
U2OS = assay: Incucyte cell viability with U2OS; settings: human, 10 µM, compound concentration 10 uM
[1] = 0 h, replicate number 2, timepoint 0 hours
[2] = 12 h, replicate number 1, timepoint 12 hours
[3] = 18 h, replicate number 1, timepoint 18 hours
[4] = 18 h, replicate number 2, timepoint 18 hours
[5] = 24 h, replicate number 1, timepoint 24 hours
[6] = 6 h, replicate number 1, timepoint 6 hours
[7] = 6 h, replicate number 2, timepoint 6 hours
[8] = 12 h, replicate number 2, timepoint 12 hours
[9] = 24 h, replicate number 2, timepoint 24 hours
[10] = 0 h, replicate number 1, timepoint 0 hours
Note: unitless GR value; below 1 slowed growth and below 0 cell loss.

Structure (SMILES) | Growth Rate (HEK-293T; [1]) | Growth Rate (HEK-293T; [2]) | Growth Rate (HEK-293T; [3]) | Growth Rate (HEK-293T; [4]) | Growth Rate (HEK-293T; [5]) | Growth Rate (Fibroblast; [6]) | Growth Rate (Fibroblast; [5]) | Growth Rate (U2OS; [10]) | Growth Rate (U2OS; [1]) | Growth Rate (U2OS; [7]) | Growth Rate (U2OS; [8]) | Growth Rate (U2OS; [4]) | Growth Rate (U2OS; [9]) | Growth Rate (HEK-293T; [10]) | Growth Rate (HEK-293T; [6]) | Growth Rate (HEK-293T; [9]) | Growth Rate (Fibroblast; [1]) | Growth Rate (U2OS; [2]) | Growth Rate (U2OS; [3]) | Growth Rate (U2OS; [5]) | also measured
CC(C)Cc1ccc([C@@H](C)C(=O)NS(C)(=O)=O)cc1 [REPARIXIN] | 0.48 | 0.78 | 0.7 | 0.83 | 0.82 | 0.51 | 0.06 | -0.7 | -1 | 0.83 | 0.88 | 0.86 | 0.93 | – | – | – | – | – | – | – | Growth Rate (Fibroblast; [7]): -0.08; Growth Rate (Fibroblast; [2]): 0.63; Growth Rate (Fibroblast; [8]): 0.66; Growth Rate (Fibroblast; [3]): 0.6; Growth Rate (Fibroblast; [4]): 0.65; Growth Rate (Fibroblast; [9]): 0.95
COc1ccc2nc3ccc(OC)cc3c(SCCCN)c2c1.Cl | -0.25 | -0.16 | 0.19 | 0.22 | 0.28 | 0.94 | – | -0.75 | -0.3 | – | 0.2 | 0.16 | 0.21 | -0.05 | -0.57 | 0.19 | 0.39 | 0.7 | 0.19 | 0.14 | Growth Rate (HEK-293T; [7]): 0.26; Growth Rate (HEK-293T; [8]): 0.33; Growth Rate (Fibroblast; [10]): 0.15
Cc1sc2c(c1C)C(c1ccc(Cl)cc1)=N[C@H](CC(=O)OC(C)(C)C)c1nnc(C)n1-2 | 0.63 | – | 0.85 | 0.87 | 0.81 | -0.25 | 0.98 | – | – | – | – | – | – | 0.38 | – | 0.86 | – | 0.95 | 0.97 | 0.92 | Growth Rate (HEK-293T; [8]): 0.95; Growth Rate (Fibroblast; [2]): 0.45; Growth Rate (Fibroblast; [3]): 0.98; Growth Rate (U2OS; [6]): 0.83
CN1C[C@@H](NS(=O)(=O)N(C)C)C[C@@H]2c3cccc4c3c(cn4C)C[C@H]21.Cl [MESULERGINE HYDROCHLORIDE] | 0.55 | – | – | – | – | – | – | 0.87 | – | 0.84 | – | – | 0.99 | 0.52 | – | – | – | – | 0.99 | – | Growth Rate (HEK-293T; [8]): 0.91; Growth Rate (Fibroblast; [7]): -0.13; Growth Rate (Fibroblast; [8]): 0.81
CCOC(=O)Nc1cc(-c2ccc(C)c(NS(C)(=O)=O)c2)nn2c(C)nnc12 | 0.66 | 0.95 | 0.79 | 0.98 | 0.46 | -0.16 | – | 0.25 | – | 0.59 | 0.95 | 0.95 | 0.84 | 0.65 | – | 0.76 | 0.22 | 0.56 | 0.82 | 0.83 | Growth Rate (Fibroblast; [9]): 0.95; Growth Rate (U2OS; [6]): 0.15
COc1ccc2c(c1OCc1ccccc1)C[C@@H](C(=O)O)N(C(=O)C(c1ccccc1)c1ccccc1)C2 [OLODANRIGAN] | – | 0.74 | 0.8 | – | 0.86 | 0.24 | 0.83 | – | -1 | – | 0.89 | 0.98 | – | – | 0.62 | – | 0.27 | – | – | – | Growth Rate (HEK-293T; [7]): 0.64; Growth Rate (Fibroblast; [10]): 0.93
CCCCC[C@H](O)/C=C/[C@H]1[C@H](O)CC(=O)[C@@H]1CCCCCCC(=O)O [ALPROSTADIL] | -0.14 | – | – | 0.94 | – | – | – | 0.29 | -1 | 0.85 | 0.88 | 0.83 | 0.97 | -0.15 | 0.92 | – | 0.17 | 0.28 | 0.53 | 0.85 | Growth Rate (HEK-293T; [8]): 1; Growth Rate (Fibroblast; [10]): -0.23; Growth Rate (U2OS; [6]): -0.08
COc1cc2nc(N(C)CCCNC(=O)C3CCCO3)nc(N)c2cc1OC.Cl (stereo not drawn) [ALFUZOSIN HYDROCHLORIDE] | 0.19 | – | 0.99 | – | 0.99 | – | 0.72 | -0.55 | – | 0.85 | 0.97 | 0.93 | – | 0.21 | 0.54 | 0.96 | 0.06 | 0.43 | 0.72 | 0.81 | Growth Rate (Fibroblast; [10]): 0.72; Growth Rate (Fibroblast; [7]): 0.11; Growth Rate (Fibroblast; [8]): 0.51; Growth Rate (Fibroblast; [4]): 0.61; Growth Rate (Fibroblast; [9]): 0.47; Growth Rate (U2OS; [6]): 0.24
C=CCNc1ncnc2ccc(Br)cc12 | 0.64 | 0.84 | 0.58 | 0.9 | 0.91 | – | 0.45 | – | 0.44 | – | 0.77 | 0.85 | 0.9 | 0.98 | 0.57 | 0.96 | 0.05 | 0.96 | 0.82 | 0.97 | Growth Rate (Fibroblast; [2]): 0.47; Growth Rate (Fibroblast; [3]): 0.3; Growth Rate (Fibroblast; [4]): 0.98; Growth Rate (Fibroblast; [9]): 0.75
CCNC(=O)[C@H]1O[C@@H](n2cnc3c(N)nc(NCCc4ccc(CCC(=O)O)cc4)nc32)[C@H](O)[C@@H]1O.Cl | 0.1 | – | – | – | – | 0.96 | – | -0.07 | – | 0.99 | – | – | 0.97 | 0.05 | 0.95 | – | 0.98 | 0.64 | 0.96 | – | Growth Rate (Fibroblast; [7]): 0.47; Growth Rate (Fibroblast; [8]): 0.63; Growth Rate (U2OS; [6]): 0
CN(C)CCCc1cc(C(=O)Nc2ccc(-c3ccncc3)cc2)ccc1O.Cl.Cl | 0.49 | 0.69 | 0.69 | – | 0.67 | 0.34 | -0.07 | -0.09 | -0.87 | – | – | – | – | 0.52 | 0.98 | 0.98 | 0.18 | – | – | – | Growth Rate (HEK-293T; [7]): 0.48; Growth Rate (HEK-293T; [8]): 0.93; Growth Rate (Fibroblast; [10]): 0.85; Growth Rate (Fibroblast; [7]): 0.16; Growth Rate (Fibroblast; [2]): 0.34; Growth Rate (Fibroblast; [3]): 0; Growth Rate (Fibroblast; [4]): 0.66; Growth Rate (Fibroblast; [9]): 0.69
Cc1c(CC(=O)O)c2cccnc2n1Cc1ccc(S(C)(=O)=O)cc1C(F)(F)F [FEVIPIPRANT] | 0.79 | – | – | – | – | – | – | -0.75 | -1 | 0.82 | – | 0.93 | 0.88 | – | – | – | 0.97 | – | – | – | Growth Rate (Fibroblast; [10]): 0.42
CN[C@@H]1CCc2[nH]c3ccc(C(N)=O)cc3c2C1.O.O=C(O)CCC(=O)O [FROVATRIPTAN SUCCINATE] | 0.02 | – | – | 0.94 | 0.98 | 0.36 | 0.66 | -0.34 | 0.89 | – | – | – | – | -0.07 | – | 0.82 | – | 0.48 | 0.74 | 0.63 | Growth Rate (HEK-293T; [7]): 0.9; Growth Rate (Fibroblast; [3]): 0.81; Growth Rate (U2OS; [6]): 0.73
O=C(NC[C@@H]1[C@H]2CN(C(=O)OCc3cc(C(F)(F)F)cc(C(F)(F)F)c3)C[C@@H]12)c1ccc2[nH]nnc2c1 [BI 2545] | – | 0.61 | 0.65 | – | 0.64 | -0.83 | -0.35 | – | 0.37 | – | – | – | – | – | 0.33 | 0.88 | – | 0.93 | 0.99 | – | Growth Rate (HEK-293T; [7]): 0.67; Growth Rate (HEK-293T; [8]): 0.92; Growth Rate (Fibroblast; [7]): -0.59; Growth Rate (Fibroblast; [2]): -0.64; Growth Rate (Fibroblast; [8]): -0.1; Growth Rate (Fibroblast; [3]): -0.55; Growth Rate (Fibroblast; [4]): 0.22; Growth Rate (Fibroblast; [9]): 0.57
